From ChEMBL document CHEMBL4270495, “Oleanane-, ursane-, and quinone methide friedelane-type triterpenoid derivatives: Recent advances in cancer treatment” (Eur J Med Chem, 2017)

Experiments:
[1] = system: RAW264.7; experiment: Anti-inflammatory activity in mouse RAW264.7 cells assessed as inhibition of nitric oxide production; assay type: functional, cell-based
[2] = system: T-24; experiment: Cytotoxicity in human T24 cells assessed as reduction in cell viability incubated for 48 hrs by MTT assay; assay type: functional, cell-based; conditions: T-24, 48 h
[3] = Cytotoxicity in human SPCA2 cells assessed as reduction in cell viability incubated for 48 hrs by MTT assay; assay type: functional, cell-based; conditions: SPCA2, 48 h
[4] = system: A549; experiment: Cytotoxicity in human A549 cells assessed as reduction in cell viability incubated for 48 hrs by MTT assay; assay type: functional, cell-based; conditions: A549, 48 h
[5] = system: HUVEC; experiment: Cytotoxicity in HUVEC cells assessed as reduction in cell viability incubated for 48 hrs by MTT assay; assay type: cell-based; conditions: Homo sapiens
[6] = system: MCF7; experiment: Cytotoxicity in human MCF7 cells assessed as reduction in cell viability incubated for 24 hrs by MTT assay; assay type: functional, cell-based; conditions: MCF7, 24 h
[7] = system: A549; experiment: Cytotoxicity in human A549 cells assessed as reduction in cell viability incubated for 24 hrs by MTT assay; assay type: functional, cell-based; conditions: A549, 24 h
[8] = system: A-375; experiment: Cytotoxicity in human A375 cells assessed as reduction in cell viability incubated for 24 hrs by MTT assay; assay type: functional, cell-based; conditions: A-375, 24 h
[9] = system: HepG2; experiment: Cytotoxicity in human HepG2 cells assessed as reduction in cell viability incubated for 24 hrs by MTT assay; assay type: functional, cell-based; conditions: HepG2, 24 h
[10] = system: NCI-H446; experiment: Cytotoxicity in human NCI-H446 cells assessed as reduction in cell viability incubated for 24 hrs by MTT assay; assay type: functional, cell-based; conditions: NCI-H446, 24 h
[11] = system: MCF7; experiment: Cytotoxicity in human MCF7 cells assessed as reduction in cell viability; assay type: functional, cell-based
[12] = system: AGS; experiment: Cytotoxicity in human AGS cells assessed as reduction in cell viability incubated for 24 hrs by MTT assay; assay type: functional, cell-based
[13] = Cytotoxicity in human HELF cells assessed as reduction in cell viability incubated for 24 hrs by MTT assay; assay type: cell-based
[14] = system: HeLa; experiment: Cytotoxicity in human HeLa cells assessed as reduction in cell viability incubated for 24 hrs by MTT assay; assay type: functional, cell-based
[15] = system: SGC-7901; experiment: Cytotoxicity in human SGC7901 cells assessed as reduction in cell viability incubated for 48 hrs by MTT assay; assay type: functional, cell-based; conditions: SGC-7901, 48 h
[16] = system: HepG2; experiment: Cytotoxicity in human HepG2 cells assessed as reduction in cell viability incubated for 48 hrs by MTT assay; assay type: functional, cell-based; conditions: HepG2, 48 h
[17] = system: HeLa; experiment: Cytotoxicity in human HeLa cells assessed as reduction in cell viability incubated for 48 hrs by MTT assay; assay type: functional, cell-based

C[C@H]1[C@H](C)CC[C@]2(C(=O)n3ccnc3)CC[C@]3(C)C(=CC[C@@H]4[C@@]5(C)C=C(C#N)C(=O)C(C)(C)[C@@H]5CC[C@]43C)[C@H]12
IC50 [1]: 5 µM

CCOP(=O)(OCC)C(NC(=O)[C@]12CC[C@@H](C)[C@H](C)[C@H]1C1=CC[C@@H]3[C@@]4(C)C[C@@H](OC(C)=O)[C@H](OC(C)=O)[C@@](C)(COC(C)=O)[C@@H]4CC[C@@]3(C)[C@]1(C)CC2)c1ccc(Cl)cc1 (stereo partly specified)
IC50 [2]: 8.93 µM | IC50 [3]: 16.1 µM | IC50 [4]: 15.7 µM | IC50 [5]: > 100 µM

O=c1[nH]cc(F)c(=O)[nH]1 [FLUOROURACIL]
IC50 [2]: 40.1 µM | IC50 [3]: 44.3 µM | IC50 [4]: 34.5 µM | IC50 [5]: 56 µM

CC1(C)CC[C@]2(C(=O)O)CC[C@]3(C)C(=CC[C@@H]4[C@@]5(C)CC[C@H](O[C@@H]6OC[C@H](O[C@@H]7OC[C@H](O)[C@H](O)[C@H]7O)[C@H](O[C@H]7O[C@H](CO)[C@@H](O)[C@H](O)[C@@H]7O)[C@H]6O)[C@@](C)(CO)[C@@H]5CC[C@]43C)[C@H]2C1
IC50 [6]: > 50 µM | IC50 [7]: 17.9 µM

COC(=O)C(CO)NC(=O)[C@]12CC[C@@H](C)[C@@](C)(O)[C@H]1C1=CC(=O)[C@@H]3[C@@]4(C)CC[C@H](OC(C)=O)[C@](C)(COC(C)=O)[C@@H]4CC[C@@]3(C)[C@]1(C)CC2 (stereo partly specified)
IC50 [8]: 5.99 µM | IC50 [9]: 3.41 µM | IC50 [10]: 3.84 µM

C[C@H]1[C@H](C)CC[C@]2(C(N)=O)CC[C@]3(C)C(=CC[C@@H]4[C@@]5(C)CC[C@H](OC(=O)c6ccccc6)C(C)(C)[C@@H]5CC[C@]43C)[C@H]12
IC50 [9]: 8 µM | IC50 [11]: 44.6 µM

C[C@@H]1O[C@@H](O[C@@H]2[C@@H](O)[C@H](O[C@H]3CC[C@@]4(C)[C@@H](CC[C@]5(C)[C@@H]4CC=C4[C@H]6CC(C)(C)CC[C@]6(C(=O)O)CC[C@]45C)[C@]3(C)CO)OC[C@@H]2O[C@H]2O[C@H](CO)[C@@H](O)[C@H](O)[C@@H]2O)[C@H](O)[C@@H](O)[C@H]1O
IC50 [6]: > 50 µM | IC50 [7]: 19.6 µM

C[C@H]1[C@H](C)CC[C@]2(C(N)=O)CC[C@]3(C)C(=CC[C@@H]4[C@@]5(C)CC[C@H](OC(=O)CCC(=O)O)C(C)(C)[C@@H]5CC[C@]43C)[C@H]12
IC50 [9]: 9.1 µM | IC50 [11]: 44.6 µM

C[C@H]1[C@H](C)CC[C@@]23CC[C@@]4(C)[C@]5(C)CC[C@H]6C(C)(C)C(=O)C(C#N)=C[C@]6(C)C5=CC(=O)[C@]4(OC2=O)[C@H]13
IC50 [1]: 8 µM

C[C@H]1[C@H](C)CC[C@]2(C(=O)NCCCCN)CC[C@]3(C)C(=CC[C@@H]4[C@@]5(C)CC[C@H](O)C(C)(C)[C@@H]5CC[C@]43C)[C@H]12
IC50 [12]: 17.5 µM | IC50 [13]: 15 µM | IC50 [9]: 14.4 µM | IC50 [14]: 14.5 µM

C[C@H]1[C@H](C)CC[C@]2(C(=O)NCCN)CC[C@]3(C)C(=CC[C@@H]4[C@@]5(C)CC[C@H](O)C(C)(C)[C@@H]5CC[C@]43C)[C@H]12
IC50 [12]: 17.7 µM | IC50 [13]: 15.4 µM | IC50 [9]: 13.9 µM | IC50 [14]: 14.6 µM

COC(=O)[C@]12CCC(C)(C)C[C@H]1[C@H]1C(=O)C=C3[C@@]4(C)C=C(C#N)C(=O)C(C)(C)[C@@H]4CC[C@@]3(C)[C@]1(C)CC2 [BARDOXOLONE METHYL]
IC50 [1]: 4 µM

CC(=O)O[C@H]1CC[C@]2(C)[C@H]3CC=C4[C@@H]5[C@@H](C)[C@H](C)CC[C@]5(C(=O)NCCCCN)CC[C@@]4(C)[C@]3(C)CC[C@H]2C1(C)C
IC50 [12]: 14.1 µM | IC50 [13]: 25.1 µM | IC50 [9]: 16 µM | IC50 [14]: 4.2 µM

CCOP(=O)(OCC)C(NC(=O)[C@]12CC[C@@H](C)[C@H](C)[C@H]1C1=CC[C@@H]3[C@@]4(C)C[C@@H](OC(C)=O)[C@H](OC(C)=O)[C@@](C)(COC(C)=O)[C@@H]4CC[C@@]3(C)[C@]1(C)CC2)c1cccc2ccccc12 (stereo partly specified)
IC50 [2]: 43.8 µM | IC50 [3]: 46.1 µM | IC50 [4]: 54.8 µM | IC50 [5]: > 100 µM

COc1ccc(/C=N/NC(=O)COC(=O)[C@]23CC[C@@H](C)[C@@](C)(O)[C@H]2C2=CC(=O)[C@@H]4[C@@]5(C)CC[C@H](O)[C@](C)(CO)[C@@H]5CC[C@@]4(C)[C@]2(C)CC3)cc1
IC50 [15]: 11.3 µM | IC50 [16]: 4.16 µM | IC50 [17]: 8.54 µM
